Laboratory results taken from US9381349B2, “Apparatus for treating cerebral neurovascular disorders including headaches by neural stimulation” (priority 1997, dated 2016).
“Also recorded” adds a separate entry of the source. Like-named read-outs stand apart in the source and are kept apart here.

Key:
acute migraine episodes [1] = assay type: in vivo, human
From the text: (§1) The purpose of the experiments described in this Example was to determine the efficacy of dorsonasal administration of ropivacaine for inhibition of acute migraine episodes. Ropivacaine was dorsonasally administered to individual patients experiencing head pain, other symptoms, or both, believed to be associated with an acute migraine episode. Patients assessed head pain prior to and after ropivacaine administration.
Ropivacaine-HCl (NAROPINT™, Astra USA, Westborough, Mass.) was used as the commercially-available 0.75% (w/v) solution, and was obtained in 30 milliliter, sterile injectable vials.
Three methods were used to achieve dorsonasal delivery of ropivacaine to individual patients. Ropivacaine was administered to a first group of patients by an intranasal drip method. Ropivacaine was administered to a second group using cotton swabs, the absorbent portions of which were saturated with the ropivacaine solution. Ropivacaine was administered to patients in a third group by spraying the ropivacaine solution into each nostril, using either a squeeze-type spray bottle or a metered-dose spray bottle.
The intranasal drip method used to administer ropivacaine to the first group of patients was a based on the method described by Barre (1982, Headache 22:69-73), except that the ropivacaine solution was used in place of the solution used by Bane. Approximately 0.75 milliliter to approximately 1.0 milliliter of the ropivacaine solution was administered by way of each of the nostrils of each patient.
The cotton swab method used to administer ropivacaine to the second group of patients comprised gently inserting cotton swabs, sequentially and bilaterally, into the nostrils of patients and urging the swabs dorsally until their absorbent portions contacted portions of nasal epithelium located dorsal to the middle conchae. Each swab was left in place for approximately one minute, and was then withdrawn. Approximately 0.5 milliliter of the ropivacaine solution was delivered to each nostril using this method.
Patients in a third group were administered ropivacaine by spraying less than about 0.5 milliliter of the ropivacaine solution into each of the patient's nostrils using either a sterile squeeze bottle or a sterile metered-dose spray bottle of known design. The design and operation of each of these spray bottles are well known in the art.
Prior to administration of ropivacaine, each patient was placed in a supine position with the patient's head hyperextended approximately 45 degrees and rotated approximately 30 degrees to the right side. In this position, an imaginary line extending from the region of the nasal epithelium overlying the SPG of the patient through the patient's left nostril was approximately vertical. Ropivacaine was then administered to the left nostril of the patient as described for each of the three groups of patients. Ropivacaine was administered to each patient's right nostril after rotating the patient's head approximately 30 degrees to the left. Ropivacaine was administered to both nostrils of each patient to prevent cases of unilateral migraine from developing into contralateral migraine.
Prior to ropivacaine administration, each patient rated perceived headache pain according to a standard pain scale of the type used in the art. Patients were asked to rank the severity of pain which they were experiencing on a scale from 0 (no pain) to 10 (worst pain imaginable). This ten-point pain rating scale is analogous to, but has more gradations than, the four-point rating system used by the International Headache Society (IHS; Headache Classification Committee of the International Headache Society, 1988, Cephalalgia 8(Suppl. 7):19-28). Ropivacaine was administered to one nostril of each patient, and then to the other. The time required to administer ropivacaine to both nostrils of each patient was approximately three minutes. […]

migraine [2] = conditions: lidocaine, Intranasal Spray; 10-point pain scale
nerve structure = conditions: intranasally administered; cited from earlier work
headache [3] = conditions: 10% (w/v) lidocaine solution sprayed through dorsonasal cannula; three patients
Protocol: The solution was administered by spraying it through a plastic cannula which had been bent to conform its shape such that the outlet of the cannula was located dorsonasally. The cannula was inserted into each nostril, and the solution was sprayed through the cannula, exiting therefrom through the outlet.

migraine [4] = conditions: intranasal spray of 1-2 milliliters 4% (w/v) lidocaine; within fifteen minutes; cited from earlier work
tinnitus = assay: Inhibition of tinnitus by dorsonasal administration of ropivacaine (Example 4); assay type: in vivo, human; conditions: patient 4-2
From the text: Ropivacaine was dorsonasally administered to each of three patients using the nasal spray method or the nasal drops method described herein.

[5] = in vivo; cited from earlier work
muscular headache = assay: Dorsonasal administration of bupivacaine for muscular headache episodes (Example 5); assay type: in vivo, human; conditions: for Pain intensity after administration: 0.75% bupivacaine
From the text: The purpose of the experiments described in this Example was to determine the efficacy of dorsonasal administration of bupivacaine for inhibition of muscular headaches. Bupivacaine was dorsonasally administered to four individual patients experiencing head pain and other symptoms associated with a severe muscular headache episode. All of the patients had areas of sustained craniocervical muscle contraction and tenderness which was absent in all patients following headache resolution. Patients assessed head pain prior to and after bupivacaine administration. The four patients and their responses were as follows.

[6] = cited from earlier work
headache [7] = assay: Dorsonasal headache treatment using bupivacaine (Example 8); assay type: in vivo, human; conditions: two patients
Protocol: Two different headache patients were treated by delivering about 0.25-0.75 milliliters of a 0.75% (w/v) bupivacaine solution to each nostril of the patients. The solution was administered by passing the solution along a plastic cannula having an absorbent portion affixed at the distal (i.e., outlet) portion thereof. This cannula had also been bent to conform its shape such that the outlet of the cannula and the affixed absorbent portion were located dorsonasally. The solution was passed along the cannula, and the cannula was left in place for several minutes.

acute migraine episodes [8] = assay: Dorsonasal administration of bupivacaine for inhibition of acute migraine episodes (Example 2); assay type: in vivo, human
From the text: as §1, with “bupivacaine” for “ropivacaine”, “Bupivacaine” for “Ropivacaine”
The materials and methods used in the procedures performed in this Example were substantially the same as the materials and methods described in Example 1, with the exception that the composition which was administered to the patients described in this example comprised a 0.75% (w/v) solution of bupivacaine.
The organization of and the abbreviations used in Table 6 are analogous to those used in Table 1, with the exception that “B” in the treatment column refers to bupivacaine.

[9] = n-heptane/buffer biphasic system; cited from earlier work
[10] = lidocaine 2.0% (w/v), 1 cc Drops, individual patients, pain scale 0-10
[11] = bupivacaine 0.75% (w/v), 2 Sprays, individual patients, pain scale 0-10
[12] = bupivacaine 0.75% (w/v), 2 cc Drops, individual patient, pain scale 0-10

For `CCN(CC)CC(=O)Nc1c(C)cccc1C` [Lidocaine, lidocaine], the “Oropharyngeal numbness” value (acute migraine episodes [1]; human, in vivo, 15 min) was 6, the “Pain 5 min post-treatment” value (acute migraine episodes [1]; [10]) was “Pain 5 min post-treatment: 2” and the “Pain 30 min post-treatment” value (acute migraine episodes [1]; [10]) was “Pain 30 min post-treatment: 6”. For the same compound, the “Pain 45 min post-treatment” value (acute migraine episodes [1]; [10]) was “Pain 45 min post-treatment: 6^B”, the “Rate of Pain Relief (migraine pain reduction per minute per gram of drug)” value (migraine [2]) was 10.0 and the Duration of action (nerve structure) was “shorter than about one hour”. The “Relief from headache symptoms” value (headache [3]) was “All three patients experienced rapid relief” and the “Patients with decreased head pain / effectiveness to reduce migraine pain” value (migraine [4]) was 55%.
For `Oc1ccc2c(c1)[C@@]13CCCC[C@@]1(O)[C@@H](C2)N(CC1CCC1)CC3` [butorphanol], the “Effect of intranasal butorphanol on chronic non-headache pain following intranasal ropivacaine” value (tinnitus) was “faster onset and a far more powerful effect”.
For `CCCN1CCCC[C@@H]1C(=O)Nc1c(C)cccc1C` (single isomer, unassigned) [R(dextro) enantiomer of ropivacaine], the Cardiotoxicity [5] is listed as “Cardiotoxicity is a side effect”.
For `CCCCN1CCCCC1C(=O)Nc1c(C)cccc1C` (stereo not shown) [Bupivacaine, bupivacaine], the “Pain intensity after administration” value (muscular headache; Patient 1, from about 8, within about 15 minutes, tension headache) was 0, the “Pain intensity after administration” value (muscular headache; Patient 2, from about 7, within about 7 minutes, muscle contraction headache) was 0 and the “Muscle knots after treatment” value (muscular headache; Patient 4, 5 minutes after treatment) was “muscle knots were no longer perceived”. For the same compound, the “Pain intensity after administration” value (muscular headache; Patients 3 (from about 5) and 4 (from about 7), within about 5 minutes, tension headache) was “about 1”, the “Proportion bound to protein in vivo” value [6] was “Approximately 95%” and the “Relief from headache symptoms” value (headache [7]; 0.75% (w/v) bupivacaine solution via cannula with absorbent portion) was “Both of these patients experienced rapid relief”. For the same compound, the “Rebound of headache symptoms” value (headache [7]; 0.75% (w/v) bupivacaine solution, follow-up about one day) was “neither patient experienced rebound of headache symptoms within about one day”, the “Pain 5 min post-treatment” value (acute migraine episodes [8]; bupivacaine 0.75% (w/v), 2 Sprays, individual patients (first or 2nd treatment), pain scale 0-10, listed as B) was “Pain 5 min post-2nd-treatment: 0” and the “Rebound / recurrence at follow-up” value (acute migraine episodes [8]; bupivacaine 0.75% (w/v), 2 Sprays, individual patients, listed as B) was “Recurrence 4 hours post-treatmt; also recorded: No rebound up to 24 hours”. The “Pain 3 min post-treatment” value (acute migraine episodes [8]; [11]) was “Pain 3 min post-treatment: 0”, the “Pain 10 min post-treatment” value (acute migraine episodes [8]; [11]) was “Pain 10 min post-treatment: 0” and the “Associated symptom after treatment” value (acute migraine episodes [8]; bupivacaine 0.75% (w/v), 2 cc Drops, P2#3) was “Head pressure persisted”. For the same compound, the “Pain 5 min post-treatment” value (acute migraine episodes [8]; [12]) was “Pain 5 min post-treatment: 1-2”, the “Pain 10 min post-treatment” value (acute migraine episodes [8]; [12]) was “Pain 10 min post-treatment: 0” and the Rebound at follow-up (acute migraine episodes [8]; bupivacaine 0.75% (w/v), 2 cc Drops, individual patients) was “No rebound up to 24 hours”. For the same compound, the Rebound at follow-up (acute migraine episodes [8]; bupivacaine 0.75% (w/v), Sat'd Cotton Swab, individual patient) was “No rebound up to 24 hours”, the “Pain 5 min post-treatment” value (acute migraine episodes [8]; bupivacaine 0.75% (w/v), Sat'd Cotton Swab, individual patient, pain scale 0-10) was “Pain 5 min post-treatment: 0” and the “Time to arrest of migraine” value (acute migraine episodes [8]; bupivacaine 0.75% (w/v), all seven patients) was no more than 10 min. The “Rebound of migraine within twenty-four hours of treatment” value (acute migraine episodes [8]; bupivacaine 0.75% (w/v), seven patients) was “Six of the seven patients treated using bupivacaine experienced no rebound”, the “Efficacy for relief of headache pain associated with migraine” value (acute migraine episodes [8]; preliminary data) was “efficacy similar to that of ropivacaine” and the “Partition coefficient relative to lidocaine” value [9] was “about 10 times”.
